# Measurements: ChEMBL document CHEMBL6115010, “Targeting glioma with heteroaromatic alkaloids: A review of potential therapeutics” (Bioorg Med Chem, 2025)
# Legend:
# [1] = test system: H4; assay: Antiproliferative activity against human H4 cells assessed as reduction in cell viability incubated for 72 hrs by Presto-Blue cell viability assay; format: functional, cell-based; settings: H4, 72 h
# [2] = test system: U-87 MG; assay: Antitumor activity against human U-87 MG cells xenografted in mouse model assessed as reduction in tumor growth at 15 mg/kg, ip administered once daily for 5 days relative to control; format: functional, U-87MG ATCC; design: scale not given: the % may be the effect or the level left; settings: time 5 day
# [3] = test system: U-87 MG; assay: Antitumor activity against human U-87 MG cells xenografted in mouse model assessed as reduction in tumor growth at 60 mg/kg, ip administered once daily for 5 days relative to control; format: functional, U-87MG ATCC; design: scale not given: the % may be the effect or the level left; settings: time 5 day
# [4] = test system: U-251; assay: Induction of apoptosis in human U-251MG cells assessed as increase in PARP cleavage at 12.5 to 100 uM incubated for 24 hrs by Western blot analysis; format: functional; settings: dose 12.5-100 µM
# [5] = biological target: T1, Dual specificity tyrosine-phosphorylation-regulated kinase 1A (Homo sapiens, UniProt Q13627); assay: Inhibition of DYRK1A (unknown origin) incubated for 2 hrs in presence of [gamma-33P]-ATP by radioactivity based assay
# [6] = test system: U-87 MG; assay: Antiproliferative activity against human U-87 MG cells assessed as reduction in cell viability incubated for 72 hrs by Presto-Blue cell viability assay; format: functional, cell-based, U-87MG ATCC
# [7] = biological target: T1, Dual specificity tyrosine-phosphorylation-regulated kinase 1A; assay: Inhibition of DYRK1A (unknown origin) by TR-FRET assay
# [8] = test system: T98G; assay: Antiproliferative activity against human T98G cells assessed as reduction in cell viability incubated for 72 hrs by WST-8 reagent based assay; format: functional
# [9] = test system: U-251; assay: Cytotoxicity against human U-251MG cells assessed as reduction in cell growth incubated for 72 hrs by MTT assay; format: functional, cell-based; settings: U-251, 72 h
# [10] = test system: U-87 MG; assay: Antiproliferative activity against human U-87 MG cells assessed as reduction in cell viability incubated for 72 hrs by WST-8 reagent based assay; format: functional, U-87MG ATCC
# [11] = Inhibition of rat C6 cells at 2 micromol/L measured for 24 hrs relative to control; format: functional; settings: C6, 24 h, dose 2 µmol/L
# [12] = Inhibition of rat C6 cells at 1 micromol/L measured for 24 hrs relative to control; format: functional; settings: C6, 24 h, dose 1 µmol/L
# [13] = test system: M059J; assay: Cytotoxicity against human M059J cells assessed as reduction in cell viability incubated for 72 hrs by MTT assay; format: functional, cell-based
# [14] = Cytotoxicity against human M059K cells assessed as reduction in cell viability incubated for 72 hrs by MTT assay; format: functional, cell-based
# [15] = Anticancer activity against human U373 MG cells assessed as reduction in cell viability incubated for 72 hrs by MTT assay; format: functional, cell-based, U-373MG ATCC
# [16] = test system: U-251; assay: Cytotoxicity against human U-251MG cells assessed as reduction in cell growth; format: functional, cell-based
# [17] = test system: CAKI-1; assay: Antitumor activity against human CAKI-1 cells xenografted in BALB/c athymic nude mouse assessed as inhibition of tumor growth at 5 mg/kg, po administered 5 times per week and measured for 3 times per week for 42 days relative to control; format: functional; settings: CAKI-1, 1008 h, time 42 day, read-out: TGI
# [18] = test system: U-251; assay: Antiproliferative activity against human U-251MG cells assessed as reduction in cell growth incubated for 48 hrs by MTT assay; format: functional, cell-based; settings: U-251, 48 h
# [19] = test system: C6; assay: Antiproliferative activity against rat C6 cells assessed as reduction in cell growth incubated for 48 hrs by MTT assay; format: functional, cell-based; settings: C6, 48 h
# [20] = test system: C6; assay: Antiproliferative activity against rat C6 cells assessed as reduction in cell growth incubated for 72 hrs by MTT assay; format: functional, cell-based; settings: C6, 72 h
# [21] = test system: U-251; assay: Antiproliferative activity against human U-251MG cells assessed as reduction in cell growth incubated for 24 hrs by MTT assay; format: functional, cell-based; settings: U-251, 24 h
# [22] = test system: C6; assay: Antiproliferative activity against rat C6 cells assessed as reduction in cell growth incubated for 24 hrs by MTT assay; format: functional
# [23] = test system: U-251; assay: Antiproliferative activity against human U-251MG cells assessed as reduction in cell growth incubated for 72 hrs by MTT assay; format: functional, cell-based; settings: U-251, 72 h
# [24] = test system: U-87 MG; assay: Antiproliferative activity against human U-87 MG cells assessed as reduction in cell growth measured for 24 hrs by MTT assay; format: functional, cell-based, U-87MG ATCC
# [25] = test system: U-251; assay: Antiproliferative activity against human U-251MG cells assessed as reduction in cell growth measured for 24 hrs by MTT assay; format: functional, cell-based; settings: U-251, 24 h
# [26] = Antiproliferative activity against human SWO-38cells assessed as reduction in cell growth measured for 24 hrs by MTT assay; format: functional, cell-based; settings: SWO-38, 24 h
# [27] = test system: ECV-304; assay: Cytotoxicity against human ECV-304 cells assessed as reduction in cell growth by measuring lethal concentration incubated for 24 hrs by MTT assay; format: functional; settings: read-out: LC50 (the source's name)
# [28] = Cytotoxicity against rat RT-2 cells assessed as reduction in cell growth by measuring lethal concentration incubated for 24 hrs by MTT assay; format: functional; settings: RT2, read-out: LC50 (the source's name)
# [29] = test system: ECV-304; assay: Cytotoxicity against human ECV-304 cells assessed as reduction in cell growth by measuring lethal concentration incubated for 72 hrs by MTT assay; format: functional; settings: read-out: LC50 (the source's name)
# [30] = Cytotoxicity against rat RT-2 cells assessed as reduction in cell growth by measuring lethal concentration incubated for 72 hrs by MTT assay; format: functional; settings: RT2, read-out: LC50 (the source's name)
compound,measurement,setting,value
Cc1nccc2c1[nH]c1cc(O)ccc12,IC50,[1],10.9 µM
same,Activity,[2],28.2%
same,Activity,[3],38.1%
same,Activity,[4],486%
same,IC50,[5],0.016 µM
same,IC50,[6],19.1 µM
same,IC50,[7],0.07 µM
COc1ccc2c3c(c4cc(OC)c(OC)cc4c2c1)CN1CCC[C@H]1C3,EC50,[8],40 µM
same,IC50,[9],3.34 µM
same,EC50,[10],29 µM
C[n+]1cc2c3c(ccc2c2ccc4cc5c(cc4c21)OCO5)OCO3,inhibition at 2 µM,[11],82%
same,inhibition at 1 µM,[12],35%
COc1cc2c(cc1O)CCN[C@]21CS[C@@H]2c3c(OC(C)=O)c(C)c4c(c3[C@@H](COC1=O)N1[C@@H]2[C@H]2c3c(cc(C)c(OC)c3O)C[C@@H]([C@@H]1O)N2C)OCO4,IC50,[13],0.041 nM
same,IC50,[14],0.0002 µM
COc1cc2c(cc1O)CCN[C@]21CS[C@@H]2c3c(OC(C)=O)c(C)c4c(c3[C@@H](COC1=O)N1[C@@H]2[C@H]2c3c(cc(C)c(OC)c3O)C[C@@H]([C@@H]1C#N)N2C)OCO4,IC50,[15],0.0031 µM
COc1ccc2c3c(c4cc(OC)c(OC)cc4c2c1)C[C@H]1CCCN1C3 [(-)-ANTOFINE],IC50,[16],0.211 µM
same,inhibition in vivo at 5 mg/kg,[17],59%
COc1ccc2c(c1OC)CN(C)c1c-2ccc2cc3c(cc12)OCO3 [DIHYDROCHELERYTHRINE],EC50,[18],94.2 µM
same,EC50,[19],99.8 µM
same,EC50,[20],93.3 µM
same,EC50,[21],112 µM
same,EC50,[22],121.4 µM
same,EC50,[23],91.2 µM
COc1ccc2cc1Oc1ccc(cc1)C[C@H]1c3cc(c(OC)cc3CCN1C)Oc1c(OC)c(OC)cc3c1[C@H](C2)N(C)CC3 [FANCHININ],IC50,[24],10.8 µg/mL
same,IC50,[25],56.1 µg/mL
same,IC50,[26],50 µg/mL
same,CC50,[27],34.2 µM
same,CC50,[28],22.6 µM
same,CC50,[29],25.1 µM
same,CC50,[30],11.3 µM
